Patent US7217739B2, “Method for inducing cell death with carbonyl scavengers” (Arizona Board of Regents on behalf of the University of …, priority 2004, dated 2007)

What was measured:
human A431 cells = experiment: Apoptosis in squamous cell carcinoma line A431; format: cell-based; settings: 10 mM, 24 hours
Description: In each case, 10 mM of the test compound was used, over 24 hours, on human A431 cells, and apoptosis was measured as described, supra.

[1] = tested on: human melanoma line A-375; experiment: Apoptosis by annexin V-FITC/propidium iodide flow cytometry, A-375 melanoma; format: cell-based
Description: (§1) The murine melanoma cell line B16 was used, as were three human melanoma lines, i.e., G-361, A-375, and LOX. Samples of the cells were exposed to 10 mM of D-penicillamine continuously, over a 24 hour period. Apoptosis was measured using a standard assay, i.e., flow cytometric staining using annexin V-FITC/propidium iodide. As a control, normal human skin fibroblasts, i.e., “CF3” cells, were used.
(§2) Malignant human melanoma cells A375, and normal fibroblasts (CF3), were tested, using 10 mM of MEC, with 24 hours of exposure.

[2] = tested on: normal human skin fibroblasts CF3; experiment: Apoptosis by annexin V-FITC/propidium iodide flow cytometry, normal CF3 fibroblasts; format: cell-based
Description: as §1, §2

[3] = tested on: human melanoma cell line G-361; experiment: Apoptosis by annexin V-FITC/propidium iodide flow cytometry, G-361 melanoma; format: cell-based; settings: G-361 cells
Description: as §1
The compound D-penicillamine (D-P), aminoguanidine (AG), N-acetyl-D-penicillamine (NAP), N-acetyl-L-cysteine (NAC), and penicillamine disulfide (PSS) were tested. D-P, NAC and NAP are known as antioxidants. D-P and aminoguanidine are known as carbonyl scavengers.

[4] = tested on: Human HeLa cervical adenocarcinoma cells; experiment: Apoptosis in HeLa cervical adenocarcinoma cells; format: cell-based
Description: The efficacy of the compounds on other cancers, epithelial cancers in particular, was determined. Human HeLa cervical adenocarcinoma cells were used, and tested with D-penicillamine, at 10 mM, and aminoguanidine, at 25 mM.

[5] = tested on: murine melanoma cell line B16; experiment: Apoptosis by annexin V-FITC/propidium iodide flow cytometry, B16 melanoma; format: cell-based; settings: B16 cells; continuous 24 hour exposure; D-penicillamine 10 mM
Description: as §1

human melanoma line LOX = experiment: Apoptosis by annexin V-FITC/propidium iodide flow cytometry, LOX melanoma; format: cell-based; settings: LOX cells; continuous 24 hour exposure; D-penicillamine 10 mM
Description: as §1

[6] = tested on: premalignant, immortalized human keratinocytes HaCaT; experiment: Apoptosis in premalignant immortalized keratinocytes; format: cell-based; settings: HaCaT cells; 12.5 mM; continuous over 24 hours
Description: In these experiments, D-penicillamine was added, at a concentration of 12.5 mM, to premalignant, immortalized human keratinocytes, or “HaCaT” cells, and the exposure was Continuous over 24 hours.

[7] = tested on: A375 melanoma cells in collagen matrix; experiment: Dermal melanoma reconstruct, melanoma cells; format: cell-based, human; settings: 12.5 mM; A375 and CF3 cells embedded in a collagen matrix
Text: (§3) A dermal melanoma reconstruct was made, where both CF3 fibroblast and A375 melanoma cells were embedded in a collagen matrix. Seventy two hours after “seeding” in the matrix, the melanoma cells have proliferated extensively, as the controls show, in FIG. 7.

[8] = tested on: CF3 fibroblast in collagen matrix; experiment: Dermal melanoma reconstruct, fibroblast network; format: cell-based, human; settings: 12.5 mM; A375 and CF3 cells embedded in a collagen matrix
Text: as §3

[9] = Example 6, concentration not given

How did the induction of apoptosis (human A431 cells) turn out when `COC(=O)[C@H](N)C(C)(C)S` [D-penicillamine methyl ester] was run?
Its induction of apoptosis is “induction of apoptosis”.

What about the induction of apoptosis (human A431 cells; listed as D-P—OCH3) of the same compound?
The induction of apoptosis was “stronger apoptotic effect”.

What does the source list for `CCC(C)(S)[C@H](N)C(=O)O` (stereo partly drawn) [MEC, 3-methyl-3-ethyl-L-cysteine]?
induction of apoptosis ([1]; A375 cells, 10 mM of MEC, 24 hours of exposure): Pronounced induction of apoptosis; induction of apoptosis ([2]; normal CF3 fibroblasts, 10 mM of MEC, 24 hours of exposure): none was observed

What does the source list for `N=C(N)NN` [aminoguanidine]?
induction of apoptosis [3, 9]: induced apoptosis; induction of apoptosis ([4]; 25 mM): apoptosis inducers

Which results are given for `CC(C)(S)[C@@H](N)C(=O)O` [D-penicillamine, 3-mercapto-D-valine]?
induction of apoptosis [5]: apoptosis was induced; induction of apoptosis [3, 9]: induced apoptosis; induction of apoptosis ([3]; continuous 24 hour exposure, D-penicillamine 10 mM): apoptosis was induced; induction of apoptosis ([1]; A-375 cells, continuous 24 hour exposure, D-penicillamine 10 mM): apoptosis was induced; induction of apoptosis (human melanoma line LOX): apoptosis was induced; induction of apoptosis ([2]; normal CF3 cells, continuous 24 hour exposure, D-penicillamine 10 mM): no change; induction of apoptosis [6]: apoptosis is indicated; induction of apoptosis (human A431 cells): induction of apoptosis; induction of apoptosis ([4]; 10 mM): apoptosis inducers; elimination of melanoma cells from dermal melanoma reconstruct [7]: eliminated the melanoma cells; structure integrity of the fibroblast collagen network [8]: maintained the structure integrity of the fibroblast collagen network
